Reference: patent US9526785B2, “Pharmaceuticals for oral delivery” (Enteris BioPharma, Inc., priority 2013, dated 2016)
Where two headings read alike, the source gives them in different places.

Assay: Tigecycline plasma PK and % F after intraduodenal (ID) injection in anesthetized rats
Assay type: in vivo, Sprague-Dawley Rats
Conditions: for AUC(0-t) / Tmax / bioavailability / Cmax: female, Sprague-Dawley, rat, plasma; for bioavailability: read-out: % F, mean
Protocol: Animals weighed approximately 250 g at the time of testing. Rats were fasted overnight (with water available), prior to dosing.
Intravenous (IV) doses were administered as a bolus injection into the left carotid […] at a dose volume of 1.6 mL/kg. Intraduodenal doses were administered as bolus injections into the duodenum at a dose volume of 1.2 mL/kg.
An additional study was conducted exploring the effect of formulation pH at constant CA and LLC concentrations (RA867).
Female rats were maintained in groups of 3 per polycarbonate (or equivalent) shoebox cage with fresh wood chip bedding at 20-22° C. under a 12 hour on/off light:dark cycle. […] After the rats went limp they were injected intraperitoneally (IP) with 0.1 mL ketamine/xylazine. The anesthetic state was maintained by IP injection of ketamine/xylazine on an as needed basis. Animal weights were determined post-anesthesia induction.
An indwelling catheter for blood sampling was inserted into the right carotid artery by exposing the trachea with Mayo scissors, clamping the bottom of the […] and tying off the top with surgical suture. The area between was nicked with small sharp scissors and Intramedic polyethylene tubing was inserted into the nicked area. The artery with the tubing was sealed with suture to prevent leakage. A 23-gauge Intramedic Luer Stub Adapter was inserted into the cannula and attached to a 3 way valve which was connected to a 3 cc syringe filled with 0.9% normal saline and a 1 cc syringe filled with 5 U/mL sodium heparin for blood sampling.
An intraduodenal injection was utilized to mimic oral delivery of an enterically coated capsule or tablet formulation. […] Mayo scissors were used to expose the duodenum and the site of administration was identified by measuring 5 cm from the junction of the stomach and the duodenum towards the jejunum. The measured site was identified by inserting a small piece of surgical suture underneath the site for injection. After the formulation was injected, the abdominal cavity was closed with surgical clips.
Blood samples were collected in tubes containing 20 μL 180 mM EDTA. The tubes were maintained on ice and then centrifuged at approximately 3000 rpm at 4° C. for 5 minutes. Plasma was harvested immediately after centrifugation of the samples and stored at −20° C. pending analysis.
Minocycline (VWR international) was used as an internal standard. Sample processing/clean-up of plasma samples was carried out offline by protein precipitation with acidified acetonitrile.
The HPLC system consisted of Shimadzu SIL-HTc HPLC system equipped with dual Shimadzu LC-10ADvp isopumps, a Shimadzu CTO-10ASvp column temperature controller and a Shimadzu SPD-10Avp variable wavelength detector. […] Mobile phase A consisted of 23 mM phosphate buffer pH 2.5 with 6 mM 1-octanesulfonic acid, while mobile phase B consisting of pure acetonitrile. […] The mobile phase flow rate was 1.2 mL/min. Detection was performed using the SPD-10Avp variable wavelength detector set at 350 nm, with a sensitivity of 0.001 aufs.
The samples were then centrifuged under refrigeration at 13 k rpm for 30 minutes. The supernatant was taken and the liquid was removed to dryness in a turbovap. The samples were then reconstituted in 55 μL 0.1M phosphate buffer, pH 3.8. Samples were maintained at 10° C. while on the autoinjector during sequence. The injection volume was 50 μL. The unknown concentration in rat plasma samples was determined by interpolation of the peak area ratios of analyte:internal standard versus the ratio of their nominal concentrations into the regression line obtained from calibration standards spiked in pooled rat plasma. No regression weighting was used for the calculations. […] The calibration curve covered the range of 0.05 μg/mL to 5.0 μg/mL.

[1] = ID, 400 mM CA (pH 3.5), 26 mM LLC, 4.8 mg/kg (RA851), parent Tigecycline peak only, 4.8 mg/kg
[2] = ID, 400 mM CA (pH 3.5), 26 mM LLC, 9.0 mg/kg (RA853), parent Tigecycline peak only, 9 mg/kg
[3] = 4.6 mg/kg, RA861, ID, 26 mM LLC alone, mean dose 4.6 mg/kg
[4] = 4.6 mg/kg, RA861, ID, 400 mM CA/26 mM LLC, mean dose 4.6 mg/kg
[5] = 4.8 mg/kg, ID, PBS, 4.8 mg/kg (RA851)
[6] = 4.8 mg/kg, RA861, ID, 400 mM CA alone, mean dose 4.8 mg/kg
[7] = 4.8 mg/kg, pH 3.5, ID, 100 mM CA (pH 3.5), 26 mM LLC, 4.8 mg/kg (RA851)
[8] = 4.8 mg/kg, pH 3.5, ID, 400 mM CA (pH 3.5), 26 mM LLC, 4.8 mg/kg (RA851), parent Tigecycline peak only
[9] = 4.8 mg/kg, pH 3.5, RA867, ID, 400 mM CA/26 mM LLC pH 3.5, 4.8 mg/kg
[10] = 4.8 mg/kg, pH 6, RA867, ID, 400 mM CA/26 mM LLC pH 6.0, 4.8 mg/kg
[11] = 9 mg/kg, ID, PBS, 9.0 mg/kg (RA853), without animal RA853-6
[12] = 9 mg/kg, pH 3.5, ID, 100 mM CA (pH 3.5), 26 mM LLC, 9.0 mg/kg (RA853)
[13] = 9 mg/kg, pH 3.5, ID, 400 mM CA (pH 3.5), 26 mM LLC, 9.0 mg/kg (RA853), parent Tigecycline peak only

CN(C)c1cc(NC(=O)CNC(C)(C)C)c(O)c2c1C[C@H]1C[C@H]3[C@H](N(C)C)C(O)=C(C(N)=O)C(=O)[C@@]3(O)C(O)=C1C2=O [Tigecycline]
increase of tigecycline plasma concentrations (ID, 26 mM LLC and 100 mM citrate pH 3.5, versus PBS): 7-9 x
Cmax, Mean (ID, 100 mM CA (pH 3.5), 26 mM LLC, 4.8 mg/kg (RA851), 4.8 mg/kg): 714 ng/mL
% F, Mean (ID, 100 mM CA (pH 3.5), 26 mM LLC, 4.8 mg/kg (RA851), relative to 0.64 mg/kg IV): 10.85%
Tmax, Mean (ID, 100 mM CA (pH 3.5), 26 mM LLC, 9.0 mg/kg (RA853), 9 mg/kg): 16.667 min
% F, Mean (ID, 100 mM CA (pH 3.5), 26 mM LLC, 9.0 mg/kg (RA853), relative to 12 mg/kg IV): 11.36%
increase of mean % F (ID, 100 mM CA pH 3.5, 26 mM LLC, versus PBS): 4-7 fold
Cmax, Mean [1]: 792 ng/mL
Tmax, Mean [1]: 16.7 min
AUC(0-t), Mean [2]: 137.6 µg·min/mL
Cmax, Mean [2]: 2492 ng/mL
AUC(0-t), Mean (ID, PBS, 9.0 mg/kg (RA853), without animal RA853-6, 9 mg/kg): 15.7 µg·min/mL
% F, Mean (ID, PBS, 9.0 mg/kg (RA853), without animal RA853-6, relative to 12 mg/kg IV): 2.76%
AUC(0-t) [3]: 68 ng·h/mL
Tmax [3]: 18 min
bioavailability [3]: 1%
Cmax (4.6 mg/kg, RA861, ID, 26 mM LLC alone, mean dose 4.6 mg/kg, read-out: Cmax, mean): 64.1 ng/mL
AUC(0-t) [4]: 139 ng·h/mL
Tmax [4]: 10 min
bioavailability [4]: 2.1%
Cmax (4.6 mg/kg, RA861, ID, 400 mM CA/26 mM LLC, mean dose 4.6 mg/kg, read-out: Cmax, mean): 30.6 ng/mL
AUC(0-t) [5]: 116 ng·h/mL
Tmax [5]: 90 min
Cmax (4.8 mg/kg, ID, PBS, 4.8 mg/kg (RA851), read-out: Cmax, Mean): 100 ng/mL
AUC(0-t) [6]: 17.5 ng·h/mL
Tmax [6]: 20 min
bioavailability [6]: 0.3%
Cmax (4.8 mg/kg, RA861, ID, 400 mM CA alone, mean dose 4.8 mg/kg, read-out: Cmax, mean): 11.7 ng/mL
AUC(0-t) [7]: 823 ng·h/mL
Tmax [7]: 20 min
Cmax (4.8 mg/kg, pH 3.5, ID, 100 mM CA (pH 3.5), 26 mM LLC, 4.8 mg/kg (RA851), read-out: Cmax, Mean): 710 ng/mL
AUC(0-t) [8]: 1430 ng·h/mL
Tmax [8]: 17 min
Cmax (4.8 mg/kg, pH 3.5, ID, 400 mM CA (pH 3.5), 26 mM LLC, 4.8 mg/kg (RA851), parent Tigecycline peak only, read-out: Cmax, Mean): 790 ng/mL
AUC(0-t) [9]: 537 ng·h/mL
Tmax [9]: 12 min
bioavailability [9]: 7.7%
Cmax (4.8 mg/kg, pH 3.5, RA867, ID, 400 mM CA/26 mM LLC pH 3.5, 4.8 mg/kg, read-out: Cmax, mean): 488 ng/mL
AUC(0-t) [10]: 385 ng·h/mL
Tmax [10]: 43 min
bioavailability [10]: 5.5%
Cmax (4.8 mg/kg, pH 6, RA867, ID, 400 mM CA/26 mM LLC pH 6.0, 4.8 mg/kg, read-out: Cmax, mean): 278 ng/mL
AUC(0-t) [11]: 262 ng·h/mL
Tmax [11]: 30 min
Cmax (9 mg/kg, ID, PBS, 9.0 mg/kg (RA853), without animal RA853-6, read-out: Cmax, Mean): 220 ng/mL
AUC(0-t) [12]: 1280 ng·h/mL
Tmax [12]: 17 min
Cmax (9 mg/kg, pH 3.5, ID, 100 mM CA (pH 3.5), 26 mM LLC, 9.0 mg/kg (RA853), read-out: Cmax, Mean): 2060 ng/mL
AUC(0-t) [13]: 2300 ng·h/mL
Tmax [13]: 10 min
Cmax (9 mg/kg, pH 3.5, ID, 400 mM CA (pH 3.5), 26 mM LLC, 9.0 mg/kg (RA853), parent Tigecycline peak only, read-out: Cmax, Mean): 2490 ng/mL
AUC(0-t) ([…], RA869, ID, 26 mM LLC only): 91.7 ng·h/mL
Tmax ([…], RA869, ID, 26 mM LLC only): 10 min
bioavailability ([…], RA869, ID, 26 mM LLC only, […]): 8.9%
